# What was measured:
# Assay type in all cases: cell-based
# B. subtilis ATCC 6633 = experiment: MIC by agar dilution, B. subtilis ATCC 6633; conditions: Bacillus subtilis, ATCC6633, 17 h; B. subtilis ATCC 6633; agar dilution, Mueller-Hinton agar; read-out: Minimal Inhibitory Concentration (MIC)
# Procedure: (§1) These MIC values were determined by agar dilution method: that is, two-fold dilutions of each of the test compounds were made and dispersed in a Mueller-Hinton agar medium; standard test strain which had the 10^6 CFU (Colony Forming Unit) per ml was inoculated on the medium with microplanter (Toyo, Japan), and incubated at 35°-37° C. for 17±1 hours. The structures of Ceftazidime (CAZ) and Cefotaxime (CTX) which are used as control compounds are as follows: [drawing 12]
# Staph. aureus ATCC 6538P = experiment: MIC by agar dilution, Staph. aureus ATCC 6538P; conditions: Staphylococcus aureus, ATCC6538P, 17 h; Staph. aureus ATCC 6538P; agar dilution, Mueller-Hinton agar; read-out: Minimal Inhibitory Concentration (MIC)
# Procedure: as §1
# Staph. aureus Smith = experiment: MIC by agar dilution, Staph. aureus Smith; conditions: Staphylococcus aureus, 17 h, Mueller-Hinton agar, read-out: Minimal Inhibitory Concentration (MIC)
# Procedure: as §1
# Staph. aureus C-57 = experiment: MIC by agar dilution, Staph. aureus C-57; conditions: Staphylococcus aureus, C57, 17 h, Mueller-Hinton agar, read-out: Minimal Inhibitory Concentration (MIC)
# Procedure: as §1
# Staph. aureus C-5113 = experiment: MIC by agar dilution, Staph. aureus C-5113; conditions: Staphylococcus aureus, C5113, 17 h, Mueller-Hinton agar, read-out: Minimal Inhibitory Concentration (MIC)
# Procedure: as §1
# Staph. aureus C-5216 = experiment: MIC by agar dilution, Staph. aureus C-5216; conditions: Staphylococcus aureus, C5216, 17 h, Mueller-Hinton agar, read-out: Minimal Inhibitory Concentration (MIC)
# Procedure: as §1
# [1] = tested on: S. epidermidis ATCC 12228; experiment: MIC by agar dilution, S. epidermidis ATCC 12228; conditions: Staphylococcus epidermidis, ATCC12228, 17 h; S. epidermidis ATCC 12228; agar dilution, Mueller-Hinton agar; read-out: Minimal Inhibitory Concentration (MIC)
# Procedure: as §1
# Ent. aerogenes IFO 12979 = experiment: MIC by agar dilution, Ent. aerogenes IFO 12979; conditions: Klebsiella aerogenes, IFO12979, 17 h, Mueller-Hinton agar, read-out: Minimal Inhibitory Concentration (MIC)
# Procedure: as §1
# Ent. cloacae IFO 13535 = experiment: MIC by agar dilution, Ent. cloacae IFO 13535; conditions: Enterobacter cloacae, IFO13535, 17 h; Ent. cloacae IFO 13535; agar dilution, Mueller-Hinton agar; read-out: Minimal Inhibitory Concentration (MIC)
# Procedure: as §1
# E. coli NIHJ JC-2 = experiment: MIC by agar dilution, E. coli NIHJ JC-2; conditions: Escherichia coli, NIHJJC2, 17 h; E. coli NIHJ JC-2; agar dilution, Mueller-Hinton agar; read-out: Minimal Inhibitory Concentration (MIC)
# Procedure: as §1
# E. coli No. 29 = experiment: MIC by agar dilution, E. coli No. 29; conditions: Escherichia coli, 17 h; E. coli No. 29; agar dilution, Mueller-Hinton agar; read-out: Minimal Inhibitory Concentration (MIC)
# Procedure: as §1
# E. coli DY-1 = experiment: MIC by agar dilution, E. coli DY-1; conditions: Escherichia coli, DY1, 17 h; E. coli DY-1; agar dilution, Mueller-Hinton agar; read-out: Minimal Inhibitory Concentration (MIC)
# Procedure: as §1
# K. pneumoniae NCTC 9632 = experiment: MIC by agar dilution, K. pneumoniae NCTC 9632; conditions: Klebsiella pneumoniae, NCTC9632, 17 h; K. pneumoniae NCTC 9632; agar dilution, Mueller-Hinton agar; read-out: Minimal Inhibitory Concentration (MIC)
# Procedure: as §1
# M. morganii DY-1 = experiment: MIC by agar dilution, M. morganii DY-1; conditions: Morganella morganii, DY1, 17 h; M. morganii DY-1; agar dilution, Mueller-Hinton agar; read-out: Minimal Inhibitory Concentration (MIC)
# Procedure: as §1
# [2] = tested on: Ps. aeruginosa ATCC 10145; experiment: MIC by agar dilution, Ps. aeruginosa ATCC 10145; conditions: Pseudomonas aeruginosa, ATCC10145, 17 h, Mueller-Hinton agar, read-out: Minimal Inhibitory Concentration (MIC)
# Procedure: as §1
# [3] = tested on: Ps. aeruginosa NCTC 10490; experiment: MIC by agar dilution, Ps. aeruginosa NCTC 10490; conditions: Pseudomonas aeruginosa, NCTC10490, 17 h, Mueller-Hinton agar, read-out: Minimal Inhibitory Concentration (MIC)
# Procedure: as §1
# Ps. aeruginosa DY-2 = experiment: MIC by agar dilution, Ps. aeruginosa DY-2; conditions: Pseudomonas aeruginosa, DY2, 17 h; Ps. aeruginosa DY-2; agar dilution, Mueller-Hinton agar; read-out: Minimal Inhibitory Concentration (MIC)
# Procedure: as §1
# P. vulgaris NCTC 8313 = experiment: MIC by agar dilution, P. vulgaris NCTC 8313; conditions: Proteus vulgaris, NCTC8313, 17 h; P. vulgaris NCTC 8313; agar dilution, Mueller-Hinton agar; read-out: Minimal Inhibitory Concentration (MIC)
# Procedure: as §1
# Prov. stuartii IFO 12930 = experiment: MIC by agar dilution, Prov. stuartii IFO 12930; conditions: Providencia stuartii, IFO12930, 17 h, Mueller-Hinton agar, read-out: Minimal Inhibitory Concentration (MIC)
# Procedure: as §1
# [4] = tested on: Ser. marcescens IFO 12648; experiment: MIC by agar dilution, Ser. marcescens IFO 12648; conditions: Serratia marcescens, IFO12648, 17 h; Ser. marcescens IFO 12648; agar dilution, Mueller-Hinton agar; read-out: Minimal Inhibitory Concentration (MIC)
# Procedure: as §1
Compound,MIC (B. subtilis ATCC 6633) [µg/mL],MIC (Staph. aureus ATCC 6538P) [µg/mL],MIC (Staph. aureus Smith) [µg/mL],MIC (Staph. aureus C-57) [µg/mL],MIC (Staph. aureus C-5113) [µg/mL],MIC (Staph. aureus C-5216) [µg/mL],MIC [1] [µg/mL],MIC (Ent. aerogenes IFO 12979) [µg/mL],MIC (Ent. cloacae IFO 13535) [µg/mL],MIC (E. coli NIHJ JC-2) [µg/mL],MIC (E. coli No. 29) [µg/mL],MIC (E. coli DY-1) [µg/mL],MIC (K. pneumoniae NCTC 9632) [µg/mL],MIC (M. morganii DY-1) [µg/mL],MIC [2] [µg/mL],MIC [3] [µg/mL],MIC (Ps. aeruginosa DY-2) [µg/mL],MIC (P. vulgaris NCTC 8313) [µg/mL],MIC (Prov. stuartii IFO 12930) [µg/mL],MIC [4] [µg/mL]
"CON=C(C(=O)NC1C(=O)N2C(C(=O)[O-])=C(C[n+]3ccn4cccc4c3)CSC12)c1csc(N)n1 (stereo not drawn) [Ex. 1-1, 7-β-[(Z)-2-(2-aminothiazol-4-yl)2-methoxyiminoacetamido]-3-(pyrrolo[1,2a]pyrazinium-2-yl)methyl-3-cephem-4-carboxylate]",0.1,0.1,0.39,25,0.78,0.78,0.025,≤ 0.006,0.05,≤ 0.006,≤ 0.006,≤ 0.006,≤ 0.006,≤ 0.006,0.39,0.1,1.56,≤ 0.006,≤ 0.006,≤ 0.006
"CC(C)(ON=C(C(=O)NC1C(=O)N2C(C(=O)[O-])=C(C[n+]3ccn4cccc4c3)CSC12)c1csc(N)n1)C(=O)O (stereo not drawn) [Ex. 2, 7-β-[(Z)-2-(2-aminothiazol-4-yl)-2-(2-carboxyprop-2-oxyimino)acetamido]-3-(pyrrolo[1,2-a]pyrazinium-2-yl)methyl-3-cephem-4-carboxylate]",3.13,3.13,12.5,100,25,12.5,1.56,0.025,3.13,0.2,0.1,0.05,0.2,0.05,0.78,0.39,6.25,≤ 0.006,0.025,0.1
"CCON=C(C(=O)NC1C(=O)N2C(C(=O)[O-])=C(C[n+]3ccn4cccc4c3)CSC12)c1csc(N)n1 (stereo not drawn) [Ex. 3, 7-β-[(Z)-2-(2-aminothiazol-4-yl)-2-ethoxyiminoacetamido]-3-(pyrrolo[1,2-a]pyrazinium-2-yl)methyl-3-cephem-4-carboxylate]",0.1,0.1,0.39,6.25,0.39,0.39,0.025,0.012,0.2,0.025,≤ 0.006,≤ 0.006,≤ 0.006,≤ 0.006,0.2,0.2,0.78,≤ 0.006,0.012,≤ 0.006
"C#CCON=C(C(=O)NC1C(=O)N2C(C(=O)[O-])=C(C[n+]3ccn4cccc4c3)CSC12)c1csc(N)n1 (stereo not drawn) [Ex. 4, 7-β-[(Z)-2-(2-aminothiazol-4-yl)-2-(propyn-1-oxyimino)acetamido]-3-(pyrrolo[1,2-a]pyrazinium-2-yl)methyl-3-cephem-4-carboxylate]",0.78,0.2,0.39,25,0.39,0.78,0.1,0.012,0.78,0.39,0.012,≤ 0.006,0.05,0.05,1.56,0.78,6.25,0.012,0.05,0.1
"Nc1nc(C(=NOCCF)C(=O)NC2C(=O)N3C(C(=O)[O-])=C(C[n+]4ccn5cccc5c4)CSC23)cs1 (stereo not drawn) [Ex. 5, 7-β-[(Z)-2-(2-aminothiazol-4-yl)-2-(2-fluoroethoxyimino)acetamido]-3-(pyrrolo[1,2-a]pyrazinium-2-yl)methyl-3-cephem-4-carboxylate]",0.1,0.2,0.2,12.5,0.2,0.2,0.025,≤ 0.006,0.025,0.012,≤ 0.006,≤ 0.006,≤ 0.006,≤ 0.006,0.39,0.2,1.56,≤ 0.006,≤ 0.006,≤ 0.006
"Nc1nc(C(=NOCF)C(=O)NC2C(=O)N3C(C(=O)[O-])=C(C[n+]4ccn5cccc5c4)CSC23)cs1 (stereo not drawn) [Ex. 6, 7-β-[(Z)-2-(2-aminothiazol-4-yl)-2-fluoromethoxyiminoacetamido]-3-(pyrrolo[1,2-a]pyrazinium-2-yl)methyl-3-cephem-4-carboxylate]",0.2,0.2,0.39,25,1.56,0.78,0.1,0.012,0.05,0.012,≤ 0.006,≤ 0.006,0.012,≤ 0.006,0.39,0.2,3.13,≤ 0.006,≤ 0.006,0.012
"Nc1nc(/C(=N\O)C(=O)N[C@@H]2C(=O)N3C(C(=O)[O-])=C(C[n+]4ccn5cccc5c4)CS[C@H]23)cs1 [Ex. 7, 7-β-[(Z)-2-(2-aminothiazol-4-yl)-2-hydroxyiminoacetamido]-3-(pyrrolo[1,2-a]pyrazinium-2-yl)methyl-3-cephem-4-carboxylate]",0.2,0.1,0.39,25,0.39,0.39,0.025,0.1,0.39,0.05,0.05,0.05,0.1,0.1,1.56,0.39,25,0.2,0.012,0.1
"CON=C(C(=O)NC1C(=O)N2C(C(=O)[O-])=C(C[n+]3ccn4c(SCCO)ccc4c3)CSC12)c1csc(N)n1 (stereo not drawn) [Ex. 8, 7-β-[(Z)-2-(2-aminothiazol-4-yl)-2-methoxyiminoacetamido]-3-[6-(2-hydroxyethylthio)pyrrolo[1,2-a]pyrazinium-2-yl]methyl-3-cephem-4-carboxylate]",0.1,0.1,0.2,25,0.39,0.78,0.1,0.012,1.56,0.012,≤ 0.006,≤ 0.006,0.012,0.025,0.78,0.2,3.13,0.012,≤ 0.006,0.012
